Experimental data from patent US6989435B2, “Compounds and methods to inhibit or augment an inflammatory response” (Cambridge University Technical Services Ltd., priority 1997, dated 2006).

Columns and labels:
[1] = system: SDF-1α induced human monocyte migration; assay: Human monocyte migration, SDF-1α induced; assay type: cell-based; conditions: Table 4(c); 100 μM peptide; n.s. = no statistically significant inhibition
Protocol: Agents may also be screened in a chemotactic assay which employs human neutrophils, eosinophils, mast cells, basophils, platelets, lymphocytes or monocytes. For monocytes, 9 mls of fresh blood are transferred to a tube containing 1 ml of 3.8% sodium citrate, and left at room temperature for 15 minutes. Five mls of this anti-coagulated blood are carefully layered over 3.5 ml Polymorphprep® (Nycomed Pharma, Oslo), and centrifuged at 500 g for 35 minutes per the manufacturer's instructions. The top band at the sample/medium interface contains monocytes. The monocytes are carefully removed with a glass pipette, and reconstituted to the original volume (5 ml). The cells are washed with PBS plus 10% fetal calf serum, and centrifuged at 400 g for 10 minutes. The washing step is repeated three times before the cells are counted. Cells are resuspended at 1×10^7 cells/ml in RPMI-1640+10% fetal calf serum (FCS). The monocytes are cultured for two days at 37° C. in a humidified atmosphere of 5% CO2.
On day 2, the cells are counted, spun down, and reconstituted to 1×10^7 cells/ml in Gey's balanced salt solution+1 mg/ml bovine serum albumin (BSA). […]

T-tropic HIV isolate = assay: HIV infection of Jurkat cells, reverse transcriptase assay of culture medium; assay type: cell-based; conditions: 100 μM peptide; 3 weeks in culture
Protocol: Peptides were added on day 0, one hour prior to infection of the cells with HIV isolate. The full length chemokine SDF-1α was used as a positive control.
(SEQ ID NO:1), or (iv) 100 ng/ml SDF-1, which should bind to and block all CXCR-4 receptors. After 3 weeks in culture, viral replication was assessed by a reverse transcriptase assay of the culture medium. Peptide 3(1-12)[MCP-1]
Since peptide 2(1-15)[MCP1] […] (SEQ ID NO:3) binds and inhibits an epitope used by HIV for cell entry but not by MCP-1 for signaling. To test this hypothesis, the same HIV infection assay described above was employed to test whether peptide 2(1-15)[MCP-1] (SEQ ID NO:3) inhibits HIV infection of Jurkat cells. At 100 μM, peptide 2(1-15)[MCP-1]

For EICADPKQKWVQ [Peptide 3], the “Extent of inhibition of human monocyte migration at 100 μM, SDF-1α” value [1] was 108% and the “inhibition of Jurkat cell infection by HIV” value (T-tropic HIV isolate) was “effective inhibitor”.
